From PMC2376372, “3-Bromophenyl 6-acetoxymethyl-2-oxo-2H-1-benzopyran-3-carboxylate inhibits cancer cell invasion in vitro and tumour growth in vivo” (British Journal of Cancer, 2003)

How the values were obtained:
Plasmin = target: T1, Plasmin (Homo sapiens, UniProt P00747); assay: Inactivation of plasmin (preincubation method); assay type: biochemical; details: pH 7.5, 25°C; preincubation method; NI=no inhibition
T1 construct: No; X′; α-CT; HLE; LMW-uPA; Plasmin; purchased Biogenic
Method: (§1) Bovine α-CT and LMW-uPA (MW=33 000 Da) were purchased from Sigma, HMW-uPA (MW=54 000 Da) from Choay, trypsin (TRY) and THR from Boehringer-Indelheim (Germany), and MMP-2 and MMP-9 from Calbiochem. Human leucocyte elastase and PM were from Elastase Products Co. and Biogenic, respectively. Except for THR, HMW-uPA, MMP-2 and MMP-9, enzyme concentrations were determined by active-site titrations using the appropriate titrant ([Bender et al, 1966]; [Chase and Shaw, 1970]; [Powers and Gupton, 1977]). […]
(§2) The kinetic parameters for the inhibition were determined either by the preincubation method for LMW-uPA and PM (small aliquots of the reaction mixture were withdrawn at intervals of time and the remaining activity determined), or by the progress curve method (HLE) when the inhibition was too fast to be measured accurately using the preincubation method. […]
(§3) At low inhibitor concentrations, the ratio ki/KI was obtained as kobs/[I]0. […] In the progress curve method, the substrate competes with the inhibitor and the kinetic parameters are determined as previously described ([Doucet et al, 1999]). […]

α-CT = details: pH 7.5, 25°C; ref Pochet et al (2000); cited from earlier work
HLE [1] = target: T2, HLE (Homo sapiens, UniProt P08246); details: pH 8.0, 25°C; ref Pochet et al (2000); cited from earlier work
T2 construct: purchased Elastase Products Co
T2 sequence (P08246 30-267): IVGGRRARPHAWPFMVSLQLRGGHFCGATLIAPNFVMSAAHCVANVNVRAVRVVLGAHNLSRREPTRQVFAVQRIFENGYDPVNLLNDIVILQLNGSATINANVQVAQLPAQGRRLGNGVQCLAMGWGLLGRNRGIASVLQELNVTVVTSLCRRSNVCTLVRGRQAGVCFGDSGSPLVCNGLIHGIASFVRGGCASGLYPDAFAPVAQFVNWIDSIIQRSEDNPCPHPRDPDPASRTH

HLE [2] = target: T2, HLE; assay: Inactivation of human leucocyte elastase (progress curve method); assay type: biochemical; details: pH 8.0, 25°C, read-out: ki/KI or kobs/[I], HLE
Method: as §1, §2, §3

T1 sequence (P00747 581-810 limits assumed, species assumed): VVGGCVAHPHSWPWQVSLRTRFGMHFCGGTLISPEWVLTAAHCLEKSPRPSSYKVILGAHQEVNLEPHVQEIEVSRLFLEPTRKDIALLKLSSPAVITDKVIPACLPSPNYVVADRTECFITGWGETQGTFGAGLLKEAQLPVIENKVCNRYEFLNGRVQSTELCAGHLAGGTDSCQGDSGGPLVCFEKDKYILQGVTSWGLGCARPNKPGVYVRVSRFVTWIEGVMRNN
T1 sequence (P00747 97-580 partner limits assumed, species assumed): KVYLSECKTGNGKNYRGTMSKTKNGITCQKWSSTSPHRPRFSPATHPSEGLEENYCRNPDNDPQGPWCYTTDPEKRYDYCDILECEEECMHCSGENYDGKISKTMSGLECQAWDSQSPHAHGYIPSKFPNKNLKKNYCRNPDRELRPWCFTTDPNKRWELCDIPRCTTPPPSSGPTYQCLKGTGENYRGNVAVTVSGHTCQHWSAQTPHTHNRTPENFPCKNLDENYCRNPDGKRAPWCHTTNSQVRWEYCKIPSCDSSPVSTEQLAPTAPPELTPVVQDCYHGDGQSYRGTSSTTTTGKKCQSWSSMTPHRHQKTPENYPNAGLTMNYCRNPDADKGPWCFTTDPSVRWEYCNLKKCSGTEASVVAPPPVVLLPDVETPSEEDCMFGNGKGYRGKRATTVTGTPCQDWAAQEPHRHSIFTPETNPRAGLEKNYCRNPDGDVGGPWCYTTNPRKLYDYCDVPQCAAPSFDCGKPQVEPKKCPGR

| Compound | ki/KI or kobs/[I], Plasmin (Plasmin) | ki/KI or kobs/[I], α-CT (α-CT) | ki/KI or kobs/[I], HLE (HLE [1]) | kinact/KI (HLE [2]) | melting point |
| --- | --- | --- | --- | --- | --- |
| CC(=O)OCc1ccc2oc(=O)c(C(=O)Oc3cccc(Cl)c3)cc2c1 [compound 4, 3-chlorophenyl 6-acetoxymethyl-2-oxo-2H-1-benzopyran-3-carboxylate] | not affected | 20000^a M^−1 s^−1 | 1440^a M^−1 s^−1 |  |  |
| CC(=O)OCc1ccc2oc(=O)c(C(=O)Oc3cccc(Br)c3)cc2c1 [compound 7, 3-bromophenyl 6-acetoxy-methyl-2-oxo-2H-1-benzopyran-3-carboxylate] |  |  |  | 2190 M⁻¹ s⁻¹ | 141 to 142 °C |
